Experimental data: patent US8343475B2, “Small cationic antimicrobial peptides” (priority 2006, dated 2013)
Converted amounts (≈) assume the structure as drawn. Residues, ends and D or L forms follow the SMILES beside them.

Assays:
[1] = system: clinical isolates of MRSA; assay type: cell-based, Staphylococcus aureus
Procedure, shortened: (§1)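 Modified broth microdilution in Mueller Hinton medium, peptides serially diluted in 0.01% acetic acid with 0.2% BSA in polypropylene plates. Inoculum 2-7×10^5 CFU/ml, overnight incubation at 37° C; MIC taken as lowest concentration with no visible growth.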

ESBL E. cloacae = assay type: cell-based, Enterobacter cloacae
Procedure, shortened: as §1

[2] = system: Enterococcus faecalis ATCC29212; assay type: cell-based; settings: ATCC29212
Procedure, shortened: (§2)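 Modified microdilution, MH broth, polypropylene wells. Peptide dilutions (10× stocks in 0.01% HOAc/0.2% BSA) mixed 1:10 with medium; cells 2-7×10^5 CFU/ml; 37° C overnight; endpoint no growth.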

[3] = system: Staphylococcus aureus ATCC25923; assay type: cell-based; settings: ATCC25923
Procedure, shortened: as §2

[4] = system: Liverpool Epidemic Strains; assay type: cell-based, Pseudomonas aeruginosa
Procedure, shortened: as §1

[5] = system: CXCL1 (Gro-α) release by human PBMC; assay: Chemokine induction in PBMC (capture ELISA); assay type: cell-based; settings: background (196) subtracted
Procedure, shortened: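 Human PBMC from healthy donors' heparinised blood (Ficoll), 7.5×10^5 cells treated with 20 or 100 μg/ml peptide for 24 h at 37° C, 5% CO2. Cell-free supernatants assayed for CXCL1 by capture ELISA.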

[6] = system: MCP-1 release by human PBMC; assay: Chemokine induction in PBMC (capture ELISA); assay type: cell-based; settings: background (204) subtracted
Procedure, shortened: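 Heparinized blood from healthy volunteers; Ficoll-isolated human PBMC (7.5×10^5) treated with peptides at 20 or 100 μg/ml for 24 hours at 37° C, 5% CO2. Cell-free supernatants assayed for MCP-1 by capture ELISA.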

S. aureus = assay: Mouse model of aggressive bacterial infection (intraperitoneal); assay type: in vivo; settings: 1.6×10^10 CFU IP; 4 mg/kg peptide IP four hours post infection; total infection time 24 hours; saline controls 100% death
Description: FIG. 10. Ability of new antimicrobial peptides HHC-10 and HHC-36 to protect mice against Staph aureus infections. Bacterial loads in the peritoneal lavage from individual mice after 24 hours of infection are shown (solid circles). Dead animals were assigned the highest colony forming unit (CFU) count obtained in the experiment. The solid line represents the arithmetic mean for each group.
(§3) FIG. 18. […] Mice were treated with 1.6×10^10 CFU of S. aureus intraperitoneally. Four hours post infection they received a dose of 8 mg/kg peptide IP. The infection was allowed to progress for 4 or 24 hours after which mice were euthanaised and plate counts of staphylococci surviving in the peritoneum were determined. Bacterial loads in the peritoneal lavage from individual mice after 24 hours of infection are shown (solid circles). The solid line represents the arithmetic mean for each group.
as §3, with “19.” for “18.”
To further confirm this, a mouse model of aggressive bacterial infection, widely used to assess antibiotic efficacy, was utilized. Mice were treated with 1.6×10^10 CFU IP. Four hours post infection they received a dose of 4 mg/kg peptide IP. The infection was allowed to progress for 20 more hours, for a total infection time of 24 hours.
These immunomodulatory activities led to protection against infections by S. aureus. Briefly a mouse model of aggressive bacterial infection, widely used to assess antibiotic efficacy, was utilized. […] The infection was allowed to progress for 4 or 24 hours after which mice were euthanaised and plate counts of staphylococci surviving in the peritoneum were determined.

[7] = system: MCP-3 release by human PBMC; assay: Chemokine induction in PBMC (capture ELISA); assay type: cell-based; settings: background (6) subtracted
Procedure, shortened: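 Human PBMC from healthy donors (Ficoll-isolated), 7.5×10^5 cells at 0.75–1×10^6 cells/ml, treated with peptides at 20 or 100 μg/ml for 24 h at 37° C, 5% CO2. MCP-3 in cell-free supernatants measured by capture ELISA.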

[8] = system: multidrug resistant Pseudomonas maltophilia ATCC13637; assay type: cell-based
Procedure, shortened: (§4)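 Broth microdilution in Mueller Hinton medium, peptides serially diluted in 0.01% acetic acid with 0.2% BSA in polypropylene plates. Inoculum 2-7×10^5 CFU/ml, incubated overnight at 37° C. MIC is the lowest concentration with no visible growth.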

[9] = system: ESBL Klebsiella pneumonia clinical strain 63575; assay type: cell-based
Procedure, shortened: as §4

[10] = system: ESBL E. coli clinical strain 64771; assay type: cell-based; settings: ESBL clinical strain 64771
Procedure, shortened: as §4

[11] = system: Pseudomonas aeruginosa PAO1 strain H103; assay type: cell-based; settings: PAO1
Procedure, shortened: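 Modified broth microdilution MIC in Mueller Hinton medium, peptides diluted in 0.01% acetic acid/0.2% BSA, polypropylene plates. Inoculum 2-7×10^5 CFU/ml, overnight at 37 °C; MIC is the lowest concentration with no visible growth.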

[12] = system: clinical isolate of Staphylococcus epidermidis; assay type: cell-based; settings: clinical isolate of
Procedure, shortened: as §2

[13] = system: lab isolate of Candida albicans; assay type: cell-based; settings: lab isolate of
Procedure, shortened: as §2

Escherichia coli UB1005 = assay type: cell-based; settings: indolicidin substitution variants (Table 4)
Procedure, shortened: as §2

[14] = system: wild-type Salmonella enterica ssp. typhimurium; assay type: cell-based
Procedure, shortened: as §2

[15] = system: LPS-stimulated TNFα production in THP-1 cells; assay: Suppression of P. aeruginosa LPS-stimulated TNFα production (ELISA); assay type: cell-based, human; settings: 10 ng/ml P. aeruginosa LPS, peptides at 10, 20 and 50 μg/ml (FIG. 13)
Description: FIG. 12. Assessment of the ability of peptides to suppress P. aeruginosa LPS (10 ng/ml)-stimulated TNFα production in THP1 cells. Presented results are the mean values for 4 wells performed on 2 separate occasions. The x-axis number labeling is the amount of each peptide in μg/ml for the corresponding peptides.
FIG. 13. Suppression of inflammatory responses by peptides. Monocyte/macrophage-like adherent THP-1 cells were stimulated with 10 ng/ml P. aeruginosa LPS and the resulting TNFα response measured. Peptides were added at 10, 20 and 50 μg/ml. The observed TNF-release was measured by ELISA and related to the 100% value of the untreated (without peptide) cells.
Cytotoxicity and TNFα suppression assay. THP1 cells were cultured in RPMI 1640 medium (supplemented with 10% (v/v) FCS, 1% L-glutamine, and […] sodium pyruvate) in E-toxa-clean (Sigma-Aldrich, Oakville, Ontario, Canada)-washed, endotoxin-free bottle. THP1 cells were counted and 250 μl per well of […] were transferred into a 96 well tissue cultured treated polystyrene microtiterplate (Beckton Dickinson, Franklin Lakes, USA). In addition PMA were added (1.3 nM) and the cells were incubated for three days. After three days the medium were exchanged and Pseudomonas aeruginosa LPS and the peptides were added. The incubation time was four hours and the supernatant was frozen at −20° C. The cells were stained with Tryphan Blue for 2 minutes and washed with PBS two times. The viability of the cells was determined by counting the stained cells over the unstained. The supernatent was used to measure the TNFα production by an ELISA (eBioscience, San Diego, USA) following the manufactures protocol.
LPS from P. aeruginosa strain H103 was highly purified free of proteins and lipids using the Darveau-Hancock method. Briefly, P. aeruginosa was grown overnight in LB broth at 37° C. Cells were collected and washed and the isolated LPS pellets were extracted with a 2:1 chloroform:methanol solution to remove contaminating lipids. Purified LPS samples were quantitated using an assay for the specific sugar 2-keto-3-deoxyoctosonic acid (KDO assay) and then resuspended in endotoxin-free water (Sigma-Aldrich).
Human monocytic cells, THP-1, were obtained from American type culture collection, ATCC® (TIB-202) and were grown in suspension in RPMI-1640 media (Gibco®, Invitrogen™ Life technologies, Burlington, ON), supplemented with 10% (v/v) heat inactivated fetal bovine serum (FBS), 2 mM L-glutamine and 1 mM sodium pyruvate (all from Invitrogen Life Technologies). Cultures were maintained at 37° C. in a humidified 5% (v/v) CO2 incubator up to a maximum of six passages. THP-1 cells at a density of 1×10^6 cells/ml were treated with 0.3 μg/ml phorbol 12-myristate 13-acetate (PMA; Sigma-Aldrich Canada, Oakville ON) for 24 hours, inducing plastic-adherent cells that were further rested in complete RPMI-1640 medium for an additional 24 hours prior to stimulation with various treatments including P. aeruginosa LPS (10 ng/ml) with or without peptides for 24 hours after which supernatants were collected and TNFα assessed by ELISA.
THP-1 cells were stimulated with LPS (10 ng/ml) with or without peptide (10 or 100 μg/ml) for 4 hours as indicated in the results section. Following incubation of the cells under various treatment regimens, the tissue culture supernatants were centrifuged at 1000×g for 5 min, then at 10,000×g for 2 min to obtain cell-free samples. Supernatants were aliquoted and then stored at −20° C. prior to assay for various cytokines. TNFα secretion was detected with a capture ELISA (eBioscience and BioSource International Inc., CA, USA respectively).

| SMILES | MIC [1] [µM] | MIC (ESBL E. cloacae) [µM] | MIC [2] [µM] | MIC [3] [µM] | MIC [4] [µM] | Chemokine induction Gro-α ([5]; 20 μg/ml peptide) [pg/mL] | Chemokine induction Gro-α ([5]; 100 μg/ml peptide) [pg/mL] | Chemokine induction MCP-1 ([6]; 20 μg/ml peptide) [pg/mL] | Chemokine induction MCP-1 ([6]; 100 μg/ml peptide) [pg/mL] | mice protected (S. aureus) [%] | Chemokine induction MCP-3 ([7]; 20 μg/ml peptide) [pg/mL] | Chemokine induction MCP-3 ([7]; 100 μg/ml peptide) [pg/mL] | MIC [8] [µM] | MIC [9] [µM] | MIC [10] [µM] | also measured |
| --- | --- | --- | --- | --- | --- | --- | --- | --- | --- | --- | --- | --- | --- | --- | --- | --- |
| N=C(N)NCCC[C@H](NC(=O)[C@H](CCCNC(=N)N)NC(=O)[C@H](Cc1c[nH]c2ccccc12)NC(=O)[C@H](Cc1c[nH]c2ccccc12)NC(=O)[C@H](CCCCN)NC(=O)[C@H](Cc1c[nH]c2ccccc12)NC(=O)[C@H](Cc1c[nH]c2ccccc12)NC(=O)[C@H](CCCNC(=N)N)NC(=O)[C@@H](N)CCCCN)C(N)=O [HHC36, KRWWKWWRR] (H-KRWWKWWRR-NH2; N-terminus assumed) | 1.4 (≈ 2.08 µg/mL) | 11 (≈ 16.4 µg/mL) | 43 (≈ 63.9 µg/mL) | 3 (≈ 4.46 µg/mL) | 0.3 (≈ 0.446 µg/mL) | 19 | -8 | 38 | 168 | 60 | 1 | 1 | 1.4 (≈ 2.08 µg/mL) | 22 (≈ 32.7 µg/mL) | 3 (≈ 4.46 µg/mL) |  |
| CC[C@H](C)[C@H](NC(=O)[C@H](Cc1c[nH]c2ccccc12)NC(=O)[C@H](CCCCN)NC(=O)[C@H](Cc1c[nH]c2ccccc12)NC(=O)[C@H](Cc1c[nH]c2ccccc12)NC(=O)[C@H](CCCNC(=N)N)NC(=O)[C@@H](N)CCCCN)C(=O)N[C@@H](CCCNC(=N)N)C(=O)N[C@@H](Cc1c[nH]c2ccccc12)C(N)=O [HHC10, KRWWKWIRW] (H-KRWWKWIRW-NH2; N-terminus assumed) | 1.5 (≈ 2.17 µg/mL) | 3 (≈ 4.33 µg/mL) | 12 (≈ 17.3 µg/mL) | 3 (≈ 4.33 µg/mL) | 0.8 (≈ 1.16 µg/mL) | -11 | 2 | 48 | 3210 | 40 | -1 | 49 | 0.4 (≈ 0.578 µg/mL) | 6 (≈ 8.66 µg/mL) | 1.5 (≈ 2.17 µg/mL) |  |
| CC[C@H](C)[C@H](N)C(=O)N[C@@H](CC(C)C)C(=O)N[C@@H](CCCCN)C(=O)N[C@@H](Cc1c[nH]c2ccccc12)C(=O)N[C@@H](CCCCN)C(=O)N[C@@H](Cc1c[nH]c2ccccc12)C(=O)N1CCC[C@H]1C(=O)N[C@@H](Cc1c[nH]c2ccccc12)C(=O)N[C@@H](Cc1c[nH]c2ccccc12)C(=O)N1CCC[C@H]1C(=O)N[C@@H](Cc1c[nH]c2ccccc12)C(=O)N[C@@H](CCCNC(=N)N)C(=O)N[C@@H](CCCNC(=N)N)C(N)=O [HH111, ILKWKWPWWPWRR] |  |  |  |  |  |  |  |  |  |  |  |  |  |  |  | MIC P. aerug [11]: 16 µg/mL (≈ 8.26 µM); MIC E. faecalis [2]: 31 µg/mL (≈ 16 µM); MIC S. epi. [12]: 4 µg/mL (≈ 2.06 µM); MIC C. albicans [13]: 8 µg/mL (≈ 4.13 µM); MIC E. coli (Escherichia coli UB1005): 8 µg/mL (≈ 4.13 µM); MIC S. aureus [3]: 8 µg/mL (≈ 4.13 µM); MIC S. typhi [14]: 31 µg/mL (≈ 16 µM); ability to inhibit TNFα responses compared with indolicidin [15]: slightly better or equivalent than indolicidin |
